In publication PMC6941823, “A dispensable paralog of succinate dehydrogenase subunit C mediates standing resistance towards a subclass of SDHI fungicides in Zymoseptoria tritici” (PLoS Pathogens, 2019):

These compounds were tested against C_A84I-SQR (SDHC_A84I), IPO323_Flu21 mitochondria (Zymoseptoria tritici, UniProt F9X9V6+F9XH52+O42772, A84I) (assay: Succinate-quinone (SQR) SDHI sensitivity assay on purified mitochondria, IPO323_Flu21). Conditions: mitochondria of UV mutant IPO323_Flu21; mean of three ± SD.
Format: biochemical
Protocol: Succinate-ubiquinone oxidoreductase (SQR) inhibition assays were performed on mitochondrial extracts from a panel of strains that were (i) either carrying a unique C-subunit encoding gene (ZtSDHC1, ZtSDHC1_A84I or Zt-SDHC3), or (ii) carrying two C-subunit encoding genes ZtSDHC1 and ZtSDHC3 (Table 1).
Biomass production, mitochondrial extraction and purification were performed as described in [14]. Succinate: ubiquinone/DCPIP sensitivity tests were performed as described in [14] with minor modification. The different mitochondrial suspensions were adjusted to similar initial velocity (1 OD595nm hour^-1) and inhibitor concentrations ranged between 0.047nM and 50μM with uniform 4x dilution steps (11 concentrations + DMSO control). Calculated absorbance slopes (OD/min) were used for IC50 calculations using GraphPad Prism 6.07 software non-linear curve fitting against log inhibitor concentrations.

| SMILES | IC50 [µM] |
| --- | --- |
| O=C(Nc1ccccc1-c1ccc(Cl)cc1)c1cccnc1Cl [Boscalid] | 0.062 ± 0.0192 |
| CC1=C(C(=O)Nc2ccccc2)SCCO1 [Carboxin] | 1.15 ± 0.153 |
| Cn1cc(C(=O)NCCc2ccc(Cl)cc2Cl)c(C(F)F)n1 [Compound 1] | 2.57 ± 0.239 |
| C[C@@H](Cc1ccc(Cl)cc1Cl)NC(=O)c1cn(C)nc1C(F)F [Compound 2] | 0.78 ± 0.157 |
| CON(C(=O)c1cn(C)nc1C(F)F)[C@@H](C)Cc1ccc(Cl)cc1Cl [Compound 3] | 0.028 ± 0.0073 |
| O=C(NCCc1ncc(C(F)(F)F)cc1Cl)c1ccccc1C(F)(F)F [Fluopyram] | 1.44 ± 0.354 |
| Cc1cc(OC(C)C)ccc1C(=O)C(C)(C)NC(=O)c1sccc1C [Isofetamid] | 21.4 ± 4.55 |
| CC(C)CC(C)c1sccc1NC(=O)c1cn(C)nc1C(F)(F)F (stereo not drawn) [Penthiopyrad] | 0.0046 ± 0.0017 |
| CON(C(=O)c1cn(C)nc1C(F)F)[C@@H](C)Cc1c(Cl)cc(Cl)cc1Cl [Pydiflumetofen] | 0.002 ± 0.0004 |
